Assay [1] deals with HEK293. The assay can be described thus: membrane integrity loss in HEK cells – cell-based, fluorescence, cytotoxicity control for IDE activator project, dose response (AID 588440).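 Further: cytotoxicity by LDH release measuring loss of membrane integrity.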 It counts as functional. Particulars: Homo sapiens.
Assay [2] addresses T1, Insulin-degrading enzyme (Homo sapiens, UniProt P14735).
T1 sequence (P14735 whole entry): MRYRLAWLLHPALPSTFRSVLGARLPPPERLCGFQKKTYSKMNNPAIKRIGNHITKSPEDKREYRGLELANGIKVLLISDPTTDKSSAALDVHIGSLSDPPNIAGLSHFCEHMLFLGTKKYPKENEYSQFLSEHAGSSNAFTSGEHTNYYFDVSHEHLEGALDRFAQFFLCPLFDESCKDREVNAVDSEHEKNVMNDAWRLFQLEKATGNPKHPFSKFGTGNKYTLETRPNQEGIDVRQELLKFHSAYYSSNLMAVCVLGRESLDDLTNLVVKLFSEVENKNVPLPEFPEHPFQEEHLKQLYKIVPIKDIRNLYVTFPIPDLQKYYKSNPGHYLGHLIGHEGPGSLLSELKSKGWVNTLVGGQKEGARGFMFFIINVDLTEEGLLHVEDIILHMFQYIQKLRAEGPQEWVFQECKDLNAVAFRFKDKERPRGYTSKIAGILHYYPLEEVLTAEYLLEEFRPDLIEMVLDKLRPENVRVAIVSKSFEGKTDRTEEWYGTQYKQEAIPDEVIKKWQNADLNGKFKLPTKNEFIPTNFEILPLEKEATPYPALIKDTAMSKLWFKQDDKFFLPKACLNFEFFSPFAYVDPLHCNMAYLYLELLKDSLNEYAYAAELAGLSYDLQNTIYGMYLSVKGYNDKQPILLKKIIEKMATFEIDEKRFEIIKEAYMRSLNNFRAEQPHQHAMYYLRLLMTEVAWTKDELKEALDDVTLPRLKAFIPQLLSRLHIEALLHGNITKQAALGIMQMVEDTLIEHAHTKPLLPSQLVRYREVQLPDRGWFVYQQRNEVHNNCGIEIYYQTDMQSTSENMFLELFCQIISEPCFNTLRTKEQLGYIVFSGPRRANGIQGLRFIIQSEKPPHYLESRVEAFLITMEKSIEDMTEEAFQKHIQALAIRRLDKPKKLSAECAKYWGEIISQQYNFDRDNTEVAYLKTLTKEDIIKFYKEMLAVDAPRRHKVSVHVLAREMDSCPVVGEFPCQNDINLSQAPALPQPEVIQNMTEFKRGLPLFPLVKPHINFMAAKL
The assay can be described thus: recombinant IDE activation, cell-free – biochemical, fluorescence polarization, counter-screen for IDE activator project, dose response (AID 588681).

Assay [3] concerns the target T1, Insulin-degrading enzyme. Briefly: cellular IDE activation of Abeta substrate cleavage – fluorescence polarization, HEK cells, dose response (AID 588439). Format: functional, cell-based. In general terms: Polarisation of emitted light reports the rotation of a fluorescent probe.
For assay [4], the system named is HEK293. The assay can be described thus: optical interference in Abeta FP readout, dose response, artefact control for IDE activator project, biochemical, fluorescence polarization (AID 588442). The note with it: Homo sapiens. Format: functional, cell-based.
A short description of assay [5]: intracellular Trypanosoma cruzi inhibitors in host cells – cell-based, plate reader, cherry-pick samples, set 3, dose response (AID 651818).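 Further: compounds incubated with infected cells for about four days.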 It counts as functional.
Assay [6] addresses T2, DNA repair and recombination protein RAD54-like (Homo sapiens, UniProt Q92698).
T2 sequence (Q92698 whole entry): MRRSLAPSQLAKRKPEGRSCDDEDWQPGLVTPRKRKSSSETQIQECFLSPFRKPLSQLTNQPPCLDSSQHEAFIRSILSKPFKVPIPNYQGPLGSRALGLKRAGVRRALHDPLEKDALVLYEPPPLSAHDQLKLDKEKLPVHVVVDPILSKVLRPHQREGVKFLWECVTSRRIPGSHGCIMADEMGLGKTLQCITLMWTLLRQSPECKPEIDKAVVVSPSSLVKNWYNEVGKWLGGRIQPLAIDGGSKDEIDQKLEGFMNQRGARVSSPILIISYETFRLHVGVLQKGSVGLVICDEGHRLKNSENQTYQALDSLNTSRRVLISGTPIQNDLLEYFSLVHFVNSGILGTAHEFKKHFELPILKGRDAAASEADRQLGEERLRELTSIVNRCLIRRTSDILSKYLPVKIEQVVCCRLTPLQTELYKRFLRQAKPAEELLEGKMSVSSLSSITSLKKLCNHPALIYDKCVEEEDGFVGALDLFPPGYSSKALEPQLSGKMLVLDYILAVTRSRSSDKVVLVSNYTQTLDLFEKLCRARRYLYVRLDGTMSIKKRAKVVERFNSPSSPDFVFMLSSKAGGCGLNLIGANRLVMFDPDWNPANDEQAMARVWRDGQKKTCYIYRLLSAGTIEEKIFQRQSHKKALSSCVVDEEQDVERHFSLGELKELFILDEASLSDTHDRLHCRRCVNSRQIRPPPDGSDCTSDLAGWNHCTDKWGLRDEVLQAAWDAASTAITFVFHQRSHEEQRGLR
Briefly: RAD54 Holliday junction migration blockers – biochemical, fluorescence, cherry-picked samples, dose series, confirmation (AID 651657). It counts as functional.

A short description of assay [7]: viability of uninfected HEp-2 cells – cell-based, HTS, cytotoxicity control for RSV inhibitor project, dose response (AID 2410). Format: functional. Particulars: human respiratory syncytial virus.
Assay [8] can be described thus: nonselective StAR promoter luciferase inhibitors – cell-based, luminescence, luciferase reporter, counter-screen for LRH-1 inverse agonist project, dose response (AID 651969). Format: functional. A general note: Reporter assays use an easily measured gene product as a stand-in for the process of interest.
In assay [9] the target is Nuclear receptor subfamily 5 group A member 2 (Homo sapiens, UniProt O00482). Format: functional, cell-based.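 Further: HEK293T cells transfected with LRH-1 and a StAR promoter luciferase reporter; potency for inhibitors that lower LRH-1 driven reporter light.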
Chain of Nuclear receptor subfamily 5 group A member 2 (O00482 whole entry): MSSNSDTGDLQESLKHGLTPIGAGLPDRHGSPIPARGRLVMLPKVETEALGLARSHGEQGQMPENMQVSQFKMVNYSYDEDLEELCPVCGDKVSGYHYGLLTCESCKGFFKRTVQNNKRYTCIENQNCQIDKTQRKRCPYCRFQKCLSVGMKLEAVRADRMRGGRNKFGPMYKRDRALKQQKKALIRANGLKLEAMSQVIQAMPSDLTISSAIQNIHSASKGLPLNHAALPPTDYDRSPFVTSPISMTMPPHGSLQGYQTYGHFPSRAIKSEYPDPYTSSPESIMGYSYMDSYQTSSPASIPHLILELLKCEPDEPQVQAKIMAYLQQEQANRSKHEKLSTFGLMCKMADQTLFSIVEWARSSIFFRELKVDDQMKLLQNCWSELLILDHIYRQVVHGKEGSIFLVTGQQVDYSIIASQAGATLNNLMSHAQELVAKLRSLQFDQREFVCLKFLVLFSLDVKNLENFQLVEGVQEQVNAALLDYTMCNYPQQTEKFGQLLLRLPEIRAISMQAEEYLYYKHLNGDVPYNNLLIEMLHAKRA
The next assay deals with Steroidogenic factor 1 (Homo sapiens, UniProt Q13285). The assay can be described thus: Counterscreen for inverse agonists of the liver receptor homolog-1 (LRH-1; NR5A2): Luminescence-based cell-based high throughput dose response assay to identify inverse agonists of the Steroidogenic Factor 1 Nuclear Receptor (SF1; NR5A1). It counts as functional. (In general: The purpose of a counterscreen is to sort out artefacts and off-target activity.)
Chain of Steroidogenic factor 1 (Q13285 whole entry): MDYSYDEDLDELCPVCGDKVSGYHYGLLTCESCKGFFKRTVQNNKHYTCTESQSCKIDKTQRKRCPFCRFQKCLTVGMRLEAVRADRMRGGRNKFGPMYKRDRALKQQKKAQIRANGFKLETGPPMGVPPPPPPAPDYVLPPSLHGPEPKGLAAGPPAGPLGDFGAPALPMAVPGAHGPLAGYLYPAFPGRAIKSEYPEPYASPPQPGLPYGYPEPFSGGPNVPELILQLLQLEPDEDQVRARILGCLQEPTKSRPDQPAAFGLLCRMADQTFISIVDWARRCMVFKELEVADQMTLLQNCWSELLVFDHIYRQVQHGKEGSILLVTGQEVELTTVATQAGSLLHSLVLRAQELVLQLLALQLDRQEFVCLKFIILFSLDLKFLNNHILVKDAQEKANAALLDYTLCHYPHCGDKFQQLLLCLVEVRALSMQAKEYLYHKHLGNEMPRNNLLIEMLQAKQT

Assay [10] can be described thus: microbe, parasite or virus in culture. It counts as functional. The note with it: Mycobacterium tuberculosis.
Assay [11] in a line: blockers of CRF-binding protein–CRF-R2 complex – cell-based, uHTS hits, 384-well, dose response (AID 651639). The note with it: read-out: IC50_Mean. Format: functional, Homo sapiens.
Assay [12] concerns the target T3, Corticotropin-releasing factor receptor 2/Corticotropin-releasing factor-binding protein (Homo sapiens, UniProt P24387+Q13324).
T3 sequence (Q13324 whole entry): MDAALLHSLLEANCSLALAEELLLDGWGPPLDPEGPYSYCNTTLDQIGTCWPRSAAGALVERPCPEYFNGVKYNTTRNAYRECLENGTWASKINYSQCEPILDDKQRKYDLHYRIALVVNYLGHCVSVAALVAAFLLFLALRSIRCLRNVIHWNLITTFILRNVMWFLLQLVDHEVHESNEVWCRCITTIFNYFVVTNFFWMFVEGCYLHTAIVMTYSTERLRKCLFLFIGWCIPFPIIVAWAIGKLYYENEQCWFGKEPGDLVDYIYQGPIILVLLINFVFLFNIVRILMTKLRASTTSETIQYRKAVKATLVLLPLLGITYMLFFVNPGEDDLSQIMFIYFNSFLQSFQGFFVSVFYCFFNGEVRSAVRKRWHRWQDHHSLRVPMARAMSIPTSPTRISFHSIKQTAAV
T3 sequence (P24387 whole entry): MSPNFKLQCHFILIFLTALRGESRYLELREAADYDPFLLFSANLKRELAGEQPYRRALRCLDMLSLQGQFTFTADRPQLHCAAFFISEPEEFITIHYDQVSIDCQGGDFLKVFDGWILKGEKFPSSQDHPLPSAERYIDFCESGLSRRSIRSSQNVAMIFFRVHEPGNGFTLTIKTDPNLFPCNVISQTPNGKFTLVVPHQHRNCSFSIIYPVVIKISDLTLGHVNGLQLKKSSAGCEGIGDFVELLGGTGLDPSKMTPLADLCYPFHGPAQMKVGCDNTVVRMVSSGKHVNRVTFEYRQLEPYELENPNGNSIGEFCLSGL
The assay can be described thus: Dose Response confirmation of uHTS hits for small molecule antagonists of the CRF-binding protein and CRF-R2 receptor complex. It counts as functional. Particulars: read-out: IC50_Mean.

The target of assay [13] is T3, Corticotropin-releasing factor receptor 2/Corticotropin-releasing factor-binding protein. Briefly: activators of CRF receptor 2 with binding protein – uHTS hits, confirmation (AID 602473). Format: functional. Particulars: read-out: EC50_Mean.
In assay [14] the target is T4, Sentrin-specific protease 8 (Homo sapiens, UniProt Q96LD8).
T4 sequence (Q96LD8 whole entry): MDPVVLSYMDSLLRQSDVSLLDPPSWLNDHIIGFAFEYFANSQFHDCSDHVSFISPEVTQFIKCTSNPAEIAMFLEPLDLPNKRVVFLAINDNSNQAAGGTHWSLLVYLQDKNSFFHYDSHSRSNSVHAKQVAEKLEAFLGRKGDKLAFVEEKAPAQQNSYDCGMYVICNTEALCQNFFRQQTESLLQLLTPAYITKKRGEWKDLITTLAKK
Format: functional.

For assay [15], the target named is T4, Sentrin-specific protease 8. It counts as functional. The source holds these as a separate data set.
Assay [16] is described as follows: Luminescence Cell-Based Dose Response HTS to Identify Inhibitors of 5'UTR Stem-Loop Driven Prion Protein mRNA Translation in H4 Neuroglioblastoma Cells. [Related pubchem assays: 1827 (Project Summary), 1813 (Primary HTS)]. It counts as functional.
Assay [17] in a line: HEK-293T viability loss after treatment – luminescence, T-cell screen hits, cytotoxicity control for TCR NF-kB inhibitor project, dose response (AID 489026).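 Further: cells exposed to compound about 14 hours before the viability readout.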 It counts as functional, cell-based.
Assay [18] is described as follows: alpha-synuclein stem-loop luciferase translation blockers – H4 neuroglioma cells, luminescence, confirmation (AID 1988). It counts as functional, cell-based.

Activity calls are given as the source filed them.

In the case of `NC(CO)c1cn([C@@H](CCC(=O)O)C(=O)N2CCNCC2)nn1` (stereo partly specified), in the assay with HEK293 [1], the IC50 was > 89.2 µM (inactive). The EC50 at Insulin-degrading enzyme [2] was > 54.7 µM (inactive); at Insulin-degrading enzyme [3], > 54.7 µM (inactive); with HEK293 [4], > 55.9 µM (inactive).
By AC50 is commonly meant the concentration giving half of the maximal activity seen. Regarding `C[C@@H]1CN([C@H](C)CO)C(=O)Cc2cc(N(C)C)ccc2O[C@H]1CN(C)Cc1ccc(C(=O)Nc2ccccc2N)cc1`, in [5], the AC50 was 3.46 µM (active).
Regarding `CN(C)CCCNc1nc(-c2ccc(Cl)cc2)nc2ccccc12`, the AC50 in [6] is 22.5 µM (active).
Still for that read-out and setting: to `COc1cc2nc3c(O)n(CCN(C(C)C)C(C)C)cnc-3c2cc1OC` belongs 47.7 µM (active).
As for `C[C@@H]1CN([C@H](C)CO)C(=O)Cc2cc(NC(=O)C3CCCCC3)ccc2O[C@@H]1CN(C)Cc1ccc(Cl)c(Cl)c1`, the AC50 in [5] is 2.15 µM (active).
As to `Nc1c(C(=O)CSc2nc3ccccc3o2)c(=O)[nH]c(=O)n1C1CC1`, in the assay with HEK293 [1], the IC50 was > 89.2 µM (inactive). Moreover, the EC50 at Insulin-degrading enzyme [2], on Insulin-degrading enzyme [3] and in the assay on HEK293 [4] was > 54.7 µM (inactive) in each case. For the same compound, in [7], the CC50 is 26.3 µM (active).
With `COc1ccc(CCNC(=O)COC(=O)Cc2ccccc2[N+](=O)[O-])cc1`, the IC50 in assay [8] is 35.9 µM (inactive); in [9], 35.9 µM (inactive); at Steroidogenic factor 1 it was 2.36 µM (active).
Take `COc1ccccc1NC(=O)c1ccc(NC(=O)CSc2nnnn2C)cc1`: the IC50 in [8] was 35.9 µM (inactive); in assay [9], 0.437 µM (active); on Steroidogenic factor 1, 0.77 µM (active). For the same compound, in assay [10], the CC50 is > 40 µM (active).
As for `COc1cc(OC)cc(C(=O)N[C@H](C(=O)OCC(=O)Nc2ccc3c(c2)OCO3)C(C)C)c1`, the IC50 was 35.9 µM (inactive) in [8], 4.71 µM (active) in assay [9] and 5.72 µM (active) on Steroidogenic factor 1.
In the case of `O=C(c1ccco1)N1N=C(c2cccs2)CC1c1ccccc1O` (stereo unspecified), the IC50 in assay [11] was 12.8 µM (active); in assay [12], 6.11 µM (active). Moreover, the EC50 in assay [13] is > 53 µM (inactive).
Take `O=C(Nc1c(-c2ccccc2)n[nH]c1O)c1cccc(C(F)(F)F)c1`: the IC50 is 87.3 µM (inactive) in assay [14] and 65.3 µM (inactive) in assay [15].
For the compound `O=C(c1ccc([N+](=O)[O-])cc1)N(Cc1ccccc1)Cc1ccccc1`, the results for the IC50 in [11] and in [12] were > 20 µM (inactive) and 8.56 µM (active), respectively. In addition, the EC50 in [13] was > 53 µM (inactive).
Consider `COc1cc(NC(=O)N2CCNC2=O)cc(C(=O)Nc2cccc(C(F)(F)F)c2)c1`, for which the EC50 was 9.79 µM (active) in [16]; > 54.7 µM (inactive) at Insulin-degrading enzyme [2]; > 54.7 µM (inactive) at Insulin-degrading enzyme [3]; 6.31 µM (active) in [18]; > 54.7 µM (inactive) in the assay with HEK293 [4]. The IC50 in the assay with HEK293 [1] is > 89.2 µM (inactive); in assay [17], > 80 µM (inactive).
For `Cc1ccc(O)c(NC(=S)NC(=O)COc2ccc(Br)cc2)c1`, the IC50 in the assay with HEK293 [1] is 10.7 µM (inactive). In addition, the EC50 on Insulin-degrading enzyme [2] is > 54.7 µM (inactive); at Insulin-degrading enzyme [3] it was > 54.7 µM (inactive); in assay [13], 7 µM (active); in the assay with HEK293 [4] it was > 55.9 µM (inactive).
For `O=C(COC(=O)c1ccc([N+](=O)[O-])o1)NC12CC3CC(CC(C3)C1)C2`, the values for the IC50 in assay [14] and in assay [15] were 5.13 µM (active) and 6.85 µM (active), respectively.
For `C[C@H](CO)N1C[C@H](C)[C@H](CN(C)Cc2ccc(-c3ccccc3)cc2)Oc2ccc(NC(=O)Cc3cn(C)c4ccccc34)cc2C1=O`, the AC50 in assay [5] is 15 µM (active).

(Values after ChEMBL document CHEMBL1201862, “PubChem BioAssay data set” (2004).)
